Source: ChEMBL document CHEMBL5608235, “Tricyclic Benzo[1,3]oxazinyloxazolidinones as Potent Antibacterial Agents against Drug-Resistant Pathogens” (J Med Chem, 2024)
Values after ≈ are worked out from the molar mass of the structure shown.

What was measured:
[1] = AUC (0 to infinity) in BALB/c mouse at 10 mg/kg,po administration measured upto 24 hrs by LC-MS/MS analysis; type: ADME, organism-based; details: in vivo, po, 10 mg/kg, 24 h
[2] = Plasma protein binding in BALB/c mouse at 1 mg/kg,iv administration measured upto 24 hrs by LC-MS/MS analysis; type: ADME, organism-based; details: read-out: PPB (converted)
Staphylococcus aureus [3] = experiment: Antibacterial activity against methicillin resistant Staphylococcus aureus clinical isolate 20-1 assessed as inhibition of bacterial growth incubated for 7 days by alamar blue assay; type: functional; details: clinical isolate 20-1, 168 h, time 7 day
[4] = Oral bioavailability in BALB/c mouse at 10 mg/kg administration measured upto 24 hrs by LC-MS/MS analysis; type: ADME, organism-based; details: in vivo, po, 10 mg/kg, 24 h
[5] = Metabolic stability in ICR mouse liver microsomes assessed as compound remaining at 10 uM incubated for 60 mins in absence of NADPH by LC-MS/MS analysis; type: ADME, Microsome; details: read-out: Stability
[6] = system: Staphylococcus epidermidis; experiment: Antibacterial activity against methicillin resistant Staphylococcus epidermidis clinical isolate 20-2 assessed as inhibition of bacterial growth incubated for 7 days by alamar blue assay; type: functional; details: clinical isolate 20-2, 168 h, time 7 day
Enterococcus faecalis [7] = experiment: Antibacterial activity against Enterococcus faecalis ATCC29212 assessed as inhibition of bacterial growth incubated for 18 hrs by microdilution broth assay; type: functional
[8] = Tmax in BALB/c mouse at 10 mg/kg,po administration measured upto 24 hrs by LC-MS/MS analysis; type: ADME, organism-based; details: in vivo
[9] = AUC (0 to t) in BALB/c mouse at 1 mg/kg,iv administration measured upto 24 hrs by LC-MS/MS analysis; type: ADME, organism-based; details: in vivo
[10] = MRT (0 to infinity) in BALB/c mouse at 1 mg/kg,iv administration measured upto 24 hrs by LC-MS/MS analysis; type: ADME, organism-based; details: in vivo
[11] = Cmax in BALB/c mouse at 10 mg/kg,po administration measured upto 24 hrs by LC-MS/MS analysis; type: ADME, organism-based; details: in vivo
[12] = system: Mycobacterium tuberculosis; experiment: Antibacterial activity against Mycobacterium tuberculosis H37Rv assessed as inhibition of bacterial growth incubated for 7 days by alamar blue assay; type: functional; details: 168 h, time 7 day
Staphylococcus aureus [13] = experiment: Antibacterial activity against Linezolid resistant Staphylococcus aureus clinical isolate 20-1 assessed as inhibition of bacterial growth incubated for 7 days by alamar blue assay; type: functional; details: clinical isolate 20-1, 168 h, time 7 day
Enterococcus faecalis [14] = experiment: Antibacterial activity against Linezolid resistant Enterococcus faecalis clinical isolate 20-2 assessed as inhibition of bacterial growth incubated for 7 days by alamar blue assay; type: functional; details: clinical isolate 20-2, 168 h, time 7 day
[15] = Drug concentration in BALB/c mouse plasma at 10 mg/kg,po administration measured within 15 mins by LC-MS/MS analysis; type: ADME, organism-based
[16] = Metabolic stability in human liver microsomes assessed as compound remaining at 10 uM incubated for 60 mins in absence of NADPH by LC-MS/MS analysis; type: ADME, Microsome; details: read-out: Stability
Enterococcus = experiment: Antibacterial activity against vancomycin resistant Enterococcus clinical isolate 20-1 assessed as inhibition of bacterial growth incubated for 7 days by alamar blue assay; type: functional; details: clinical isolate 20-1, 168 h, time 7 day
Bacillus subtilis = experiment: Antibacterial activity against Bacillus subtilis ATCC6633 assessed as inhibition of bacterial growth incubated for 18 hrs by microdilution broth assay; type: functional
[17] = AUC (0 to infinity) in BALB/c mouse at 1 mg/kg,iv administration measured upto 24 hrs by LC-MS/MS analysis; type: ADME, organism-based; details: in vivo, iv, 1 mg/kg, 24 h
[18] = Free AUC in BALB/c mouse at 10 mg/kg,po administration measured upto 24 hrs by LC-MS/MS analysis; type: ADME, organism-based; details: in vivo
[19] = system: Staphylococcus epidermidis; experiment: Antibacterial activity against methicillin resistant Staphylococcus epidermidis clinical isolate 20-1 assessed as inhibition of bacterial growth incubated for 7 days by alamar blue assay; type: functional; details: clinical isolate 20-1, 168 h, time 7 day
[20] = Terminal half life in BALB/c mouse at 10 mg/kg,po administration measured upto 24 hrs by LC-MS/MS analysis; type: ADME, organism-based; details: in vivo, read-out: beta t1/2 (converted)
[21] = Metabolic stability in human liver microsomes assessed as substrate remaining at 10 uM incubated for 60 mins in presence of NADPH by LC-MS/MS analysis; type: ADME, Microsome; details: read-out: Stability
Staphylococcus aureus [22] = experiment: Antibacterial activity against Staphylococcus aureus ATCC25923 assessed as inhibition of bacterial growth incubated for 18 hrs by microdilution broth assay; type: functional
[23] = Metabolic stability in ICR mouse liver microsomes assessed as substrate remaining at 10 uM incubated for 60 mins in presence of NADPH by LC-MS/MS analysis; type: ADME, Microsome; details: read-out: Stability
Enterococcus faecalis [24] = experiment: Antibacterial activity against Linezolid resistant Enterococcus faecalis clinical isolate 20-1 assessed as inhibition of bacterial growth incubated for 7 days by alamar blue assay; type: functional; details: clinical isolate 20-1, 168 h, time 7 day
[25] = MRT (0 to t) in BALB/c mouse at 1 mg/kg,iv administration measured upto 24 hrs by LC-MS/MS analysis; type: ADME, organism-based; details: in vivo
Staphylococcus aureus [26] = experiment: Antibacterial activity against vancomycin intermediate Staphylococcus aureus ATCC700699 assessed as inhibition of bacterial growth incubated for 7 days by alamar blue assay; type: functional; details: ATCC700699, 168 h, time 7 day
Staphylococcus aureus [27] = experiment: Antibacterial activity against methicillin resistant Staphylococcus aureus clinical isolate 20-2 assessed as inhibition of bacterial growth incubated for 7 days by alamar blue assay; type: functional; details: clinical isolate 20-2, 168 h, time 7 day
[28] = Cmax in BALB/c mouse at 1 mg/kg,iv administration measured upto 24 hrs by LC-MS/MS analysis; type: ADME, organism-based; details: in vivo
[29] = MRT (0 to t) in BALB/c mouse at 10 mg/kg,po administration measured upto 24 hrs by LC-MS/MS analysis; type: ADME, organism-based; details: in vivo
[30] = Cytotoxicity against African green monkey Vero cells incubated for 48 hrs by MTT assay; type: toxicity, cell-based, Chlorocebus sabaeus
[31] = MRT (0 to infinity) in BALB/c mouse at 10 mg/kg,po administration measured upto 24 hrs by LC-MS/MS analysis; type: ADME, organism-based; details: in vivo
Staphylococcus aureus [32] = experiment: Antibacterial activity against Linezolid resistant Staphylococcus aureus clinical isolate 20-2 assessed as inhibition of bacterial growth incubated for 7 days by alamar blue assay; type: functional; details: clinical isolate 20-2, 168 h, time 7 day
[33] = Terminal half life in BALB/c mouse at 1 mg/kg,iv administration measured upto 24 hrs by LC-MS/MS analysis; type: ADME, organism-based; details: in vivo, read-out: beta t1/2 (converted)
[34] = system: Staphylococcus epidermidis; experiment: Antibacterial activity against Staphylococcus epidermidis ATCC12228 assessed as inhibition of bacterial growth incubated for 18 hrs by microdilution broth assay; type: functional
[35] = AUC (0 to t) in BALB/c mouse at 10 mg/kg,po administration measured upto 24 hrs by LC-MS/MS analysis; type: ADME, organism-based; details: in vivo
[36] = Clearance in BALB/c mouse at 1 mg/kg,iv administration measured upto 24 hrs by LC-MS/MS analysis; type: ADME, organism-based; details: in vivo
[37] = Volume of distribution in BALB/c mouse at 1 mg/kg,iv administration measured upto 24 hrs by LC-MS/MS analysis; type: ADME, organism-based; details: in vivo
[38] = Drug concentration in BALB/c mouse plasma at 10 mg/kg,po administration measured after 24 hrs by LC-MS/MS analysis; type: ADME, organism-based; details: in vivo

## COC(=O)NC[C@@H]1OC(=O)N2Cc3cc(-c4ccc(C#N)cc4)c(F)cc3O[C@@H]12
[1]
  AUC: 188361 ng·h/mL
[2]
  fraction unbound at 24 h: 0.174
Staphylococcus aureus [3]
  MIC: 0.5 µg/mL (≈ 1.26 µM)
[4]
  F: 79.8%
[5]
  remaining at 1 h, 10 µM: 112%
[6]
  MIC: 0.125 µg/mL (≈ 0.315 µM)
Enterococcus faecalis [7]
  MIC: 0.25 µg/mL (≈ 0.629 µM)
[8]
  Tmax: 4 h
[9]
  AUC(0-t) at 24 h: 6810 ng·h/mL
[10]
  MRT inf: 8.4 h
[11]
  Cmax: 2790 ng/mL
[12]
  MIC: 0.73 µg/mL (≈ 1.84 µM)
Staphylococcus aureus [13]
  MIC: 8 µg/mL (≈ 20.1 µM)
Enterococcus faecalis [14]
  MIC: 2 µg/mL (≈ 5.03 µM)
[15]
  concentration at 0.25 h: 1000 ng/mL
[16]
  remaining at 1 h, 10 µM: 108%
Enterococcus
  MIC: 0.5 µg/mL (≈ 1.26 µM)
Bacillus subtilis
  MIC: 0.063 µg/mL (≈ 0.159 µM)
[17]
  AUC: 6893 ng·h/mL
[18]
  fAUC: 9450 ng·h/mL
[19]
  MIC: 0.125 µg/mL (≈ 0.315 µM)
[20]
  half-life: 49.3 h
[21]
  remaining at 1 h, 10 µM: 113%
Staphylococcus aureus [22]
  MIC: 2 µg/mL (≈ 5.03 µM)
[23]
  remaining at 1 h, 10 µM: 114%
Enterococcus faecalis [24]
  MIC: 2 µg/mL (≈ 5.03 µM)
[25]
  MRT last at 24 h: 8.1 h
Staphylococcus aureus [26]
  MIC: 0.5 µg/mL (≈ 1.26 µM)
Staphylococcus aureus [27]
  MIC: 0.5 µg/mL (≈ 1.26 µM)
[28]
  Cmax: 514 ng/mL
[29]
  MRT last at 24 h: 11.3 h
[30]
  IC50 at 48 h: > 64 µg/mL
[31]
  MRT inf: 70.9 h
Staphylococcus aureus [32]
  MIC: 8 µg/mL (≈ 20.1 µM)
[33]
  half-life: 3.9 h
[34]
  MIC: 0.032 µg/mL (≈ 0.0805 µM)
[35]
  AUC(0-t) at 24 h: 54300 ng·h/mL
[36]
  clearance: 2.42 mL/min/kg
[37]
  Vd: 0.818 L/kg
[38]
  Drug uptake: > 60%
